Laboratory results from ChEMBL document CHEMBL4477199, “Design and synthesis of novel bicalutamide and enzalutamide derivatives as antiproliferative agents for the treatment of prostate cancer” (Eur J Med Chem, 2016).

What was measured:
[1] = 33000 µM
Description: Solubility in 100% DMSO at 33 mM at -20 degC

LNCaP = assay: Antiproliferative activity against human LNCAP cells after 96 hrs by propidium iodide staining based fluorescence 2D monolayer assay; assay type: functional, cell-based
CWR22R = assay: Antiproliferative activity against human 22Rv1 cells after 96 hrs by propidium iodide staining based fluorescence 2D monolayer assay; assay type: functional, cell-based; conditions: 22Rv1, 96 h
VCaP = assay: Antiproliferative activity against human VCaP cells after 96 hrs by propidium iodide staining based fluorescence 2D monolayer assay; assay type: functional, cell-based
[2] = 96 h
Description: Solubility in RPMI1640 culture medium at <30 uM incubated for 4 days by microscopic analysis

DU-145 = assay: Antiproliferative activity against human DU145 cells after 96 hrs by propidium iodide staining based fluorescence 2D monolayer assay; assay type: functional, cell-based; conditions: DU-145, 96 h

| Structure (SMILES) | solubility [1] | IC50 (LNCaP) | IC50 (CWR22R) | IC50 (VCaP) | solubility [2] | IC50 (DU-145) |
| --- | --- | --- | --- | --- | --- | --- |
| CC(O)(CSc1ccc(C(F)(F)F)cn1)C(=O)Nc1ccc([N+](=O)[O-])cc1C(F)(F)F (centres undefined) | Soluble | 11.1 µM | 13.6 µM | 17.2 µM | Soluble | 19.7 µM |
| CC(O)(CSc1ccc(OC(F)(F)F)cc1)C(=O)Nc1ccc([N+](=O)[O-])cc1C(F)(F)F (centres undefined) | Soluble | 100 µM | 61.9 µM | 100 µM | Soluble | 69.6 µM |
| CC(O)(COc1ccc(F)cc1F)C(=O)Nc1ccc([N+](=O)[O-])c(C(F)(F)F)c1 (centres undefined) | Soluble | 10.1 µM | 20.2 µM | 20.9 µM | Soluble | 22.4 µM |
| CC(O)(COc1ccc(OC(F)(F)F)cc1)C(=O)Nc1ccc(C#N)c(C(F)(F)F)c1 (centres undefined) | Soluble | 13.6 µM | 17.2 µM | 17.6 µM | Soluble | 18.4 µM |
| C[C@](O)(CS(=O)(=O)c1ccc(F)cc1F)C(=O)Nc1ccc(C#N)c(C(F)(F)F)c1 | Soluble | 42.3 µM | 42.2 µM | 60.9 µM | Soluble | 60.2 µM |
| CC(O)(CS(=O)(=O)c1ccccc1C(F)(F)F)C(=O)Nc1ccc([N+](=O)[O-])cc1C(F)(F)F (centres undefined) | Soluble | 20.5 µM | 28.3 µM | 38.6 µM | Soluble | 46.1 µM |
| CC(O)(CS(=O)(=O)c1cccc(OC(F)(F)F)c1)C(=O)Nc1ccc([N+](=O)[O-])cc1C(F)(F)F (centres undefined) | Soluble | 12.2 µM | 18 µM | 20.3 µM | Soluble | 27.7 µM |
| CC(O)(CSc1ccccc1C(F)(F)F)C(=O)Nc1ccc(C#N)cc1C(F)(F)F (centres undefined) | Soluble | 10.7 µM | 11.6 µM | 18.3 µM | Soluble | 18.4 µM |
| CC(O)(CS(=O)(=O)c1ccc(C(F)(F)F)cc1)C(=O)Nc1ccc(C#N)cc1C(F)(F)F (centres undefined) | Soluble | 32.9 µM | 27.9 µM | 43.3 µM | Soluble | 44.6 µM |
| CC(O)(COc1ccc(F)c(F)c1)C(=O)Nc1ccc(C#N)cc1C(F)(F)F (centres undefined) | Soluble | 34.8 µM | 37 µM | 47.2 µM | Soluble | 41.9 µM |
| CC(O)(CS(=O)(=O)c1cccc(C(F)(F)F)c1)C(=O)Nc1ccc(C#N)cc1C(F)(F)F (centres undefined) | Soluble | 32.1 µM | 34.4 µM | 44.9 µM | Soluble | 45.9 µM |
| CC(O)(CS(=O)(=O)c1cccc(C(F)(F)F)c1)C(=O)Nc1ccc([N+](=O)[O-])cc1C(F)(F)F (centres undefined) | Soluble | 16.8 µM | 18.1 µM | 38.7 µM | Soluble | 32 µM |
| CC(O)(CSc1ccc(C(F)(F)F)cc1)C(=O)Nc1ccc(C#N)c(C(F)(F)F)c1 (centres undefined) | Soluble |  |  |  | Soluble |  |
| CC(O)(COc1cccc(OC(F)(F)F)c1)C(=O)Nc1ccc(C(F)(F)F)cc1 (centres undefined) | Soluble | 2.16 µM | 15.4 µM | 4.28 µM | Soluble | 29.4 µM |
| CC(O)(CSc1ccc(C(F)(F)F)cc1)C(=O)Nc1ccc([N+](=O)[O-])c(C(F)(F)F)c1 (centres undefined) | Soluble | 28.7 µM | 16.4 µM | 21.2 µM | Soluble | 22.5 µM |
| CC(O)(CSc1ccccc1C(F)(F)F)C(=O)Nc1ccc(C(F)(F)F)cc1 (centres undefined) | Soluble | 7.22 µM | 5.2 µM | 5.86 µM | Soluble | 8.76 µM |
| CC(O)(COc1ccc(C(F)(F)F)cc1)C(=O)Nc1ccc([N+](=O)[O-])cc1C(F)(F)F (centres undefined) | Soluble | 13.6 µM | 18.9 µM | 18.6 µM | Soluble | 22.1 µM |
| CC(O)(CS(=O)(=O)c1ccc(F)cc1)C(=O)Nc1ccc([N+](=O)[O-])cc1C(F)(F)F (centres undefined) | Soluble | 38.6 µM | 46.7 µM | 58.2 µM | Soluble | 60.7 µM |
| C[C@](O)(CSc1ccc(OC(F)(F)F)cc1)C(=O)Nc1ccc(C#N)c(C(F)(F)F)c1 | Soluble | 19.8 µM | 28.8 µM | 17.4 µM | Soluble | 29.8 µM |
| C[C@](O)(CSc1ccccc1C(F)(F)F)C(=O)Nc1ccc(C#N)c(C(F)(F)F)c1 |  | 7.9 µM | 5.3 µM | 2.95 µM |  | 7.69 µM |
